Assay results reported in US9593084B2 (Parion Sciences, Inc., priority 2012, dated 2017).
Values joined by “and” are separate entries in the source; they are usually repeats but may differ in a detail not shown here. Equal entries are not always repeated. “Also recorded” adds a separate entry of the source.

What was measured:
Sheep MCC = assay: Mucociliary clearance (MCC) studies in sheep; type: in vivo; settings: for AUC (% CI × h) / Initial Slope (4.0-4.5 h): MCC at 4 h post-dose
Description: The animal model that has been used most often to measure changes in MCC is the sheep model. The effect of compounds for enhancing mucociliary clearance (MCC) can be measured using an in vivo model described by Sabater et al., Journal of Applied Physiology, 1999, pp. 2191-2196, incorporated herein by reference.
(§1) In these studies, adult sheep were restrained and nasally intubated with an endotracheal tube. Aerosolized test articles were administered over 10-15 minutes to sheep. Radiolabeled ^99mTc-sulfur colloid (TSC, 3.1 mg/mL; containing approximately 20 mCi) was then administered at a specified time four or eight hours after test article. The radiolabeled aerosol was administered through the endotracheal tube for about 5 minutes. The sheep were then extubated, and total radioactive counts in the lung were measured every 5 minutes for a 1-hour observation period. The rate of radiolabel clearance from the lung is representative of the MCC rate in the animal. The advantage of this system is that it closely simulates the human lung environment. The model also allows for the collection of simultaneous PK/PD information through plasma and urine sampling over the test period. There are also several techniques to measure the drug concentrations on the airway surface during the MCC measurements. These include the collection of exhaled breath condensates or a filter paper method to obtain ASL via bronchoscopy.
The ovine model described above was used to evaluate the in vivo effects (efficacy/durability) of aerosol-delivered test agent on MCC. Treatments consisting of either 4 mL of test agent or test agent in combination with HS were tested. To determine if combining HS with test agent enhanced MCC, HS was administered immediately following test agent administration. Test solutions were aerosolized using a Raindrop nebulizer at a flowrate of eight liters per minute and connected to a dosimetry system consisting of a solenoid valve and a source of compressed air (20 psi). The deposited dose of drug in sheep lungs after an aerosol administration using the Raindrop nebulizer is estimated to be 8-15% of the dose. Using a Raindrop nebulizer, radiolabeled TSC was administered over approximately 3 minutes either 4 or 8 hours after drug treatment to evaluate efficacy/durability. Radioactive counts were measured in a central region in the right lung at 5 min intervals for one hour with a gamma camera. Three methods of analysis were utilized, 1) initial rate of clearance (slope) over the first 30 min fitted using linear regression 2) area under the curve for % clearance over time over one hour, and 3) the maximum clearance obtained in one hour.

[1] = Plasma potassium levels in sheep of the MCC study; type: in vivo
Description: as §1
The compound of Comparative Example 1 can be seen on page 15 of US 2005/0080093 and as Compound 2 on page 90 of WO 2008/031048, and as Compound 2 on pages 42-43 of WO 2008/031028. […] In order to evaluate this potential, it is beneficial to have MCC activity in vivo and not cause elevation of plasma potassium at the useful dose. One model to assess this is the sheep MCC model described below.

[2] = tested on: human bronchial epithelial (HBE) cells; assay: Airway surface liquid drug clearance and metabolism by human airway epithelium; type: in vitro ADME
Description: The disappearance of 33 from the apical surface and airway epithelial metabolism were assessed in human bronchial epithelial (HBE) cells (Table 3). In these experiments 25 μL of a 25 μM solution of ENaC blocker was added to the apical surface of HBE cells grown at an air/liquid interface, and the drug and metabolite concentration in the apical and basolateral compartment was measured over 2 h by UPLC.
Therefore, the compounds of formula (I) have a longer half-life on mucosal surfaces compared to these know compounds as evidenced by the data shown in Table G. The disappearance of Compound 33 from the apical surface and airway epithelial metabolism were assessed in HBE and compared to Comparative Example 1 (Table H). In these experiments 25 μL of a 25 μM solution of ENaC blocker was added to the apical surface of HBE cells grown at an air/liquid interface, and the drug concentration in the apical and basolateral compartment was measured over 2 h by UPLC.

[3] = sheep, solution concentration given beside the dose
[4] = HBE cells at air/liquid interface, 25 μL of 25 μM apical, mean ± SD
[5] = HBE cells, 25 μL of 25 μM apical, parent only

With N=C(NCCCCc1ccc(OC[C@H](N)C(N)=O)cc1)NC(=O)c1nc(Cl)c(N)nc1N [Comparative Example 1, (S)-3,5-diamino-6-chloro-N—(N-(4-(4-(2,3-diamino-3-oxopropoxy)phenyl)butyl)carbamimidoyl)pyrazine-2-carboxamide] the ED50 (Sheep MCC; Ovis aries, using slope, AUC and Maximum Clearance, read-out: ED50 in the sheep MCC model) was about 0.24 µmol/kg, the “ED50 in the sheep MCC model (solution concentration)” value (Sheep MCC; approximate ED50 dose as concentration of dosing solution) was about 3 mM and the “AUC (% CI × h)” value (Sheep MCC; sheep, 24 nmol/kg (300 μM)) was 6.9 ± 1.0 (3) % CI × h. The “Initial Slope (4.0-4.5 h)” value (Sheep MCC; sheep, 24 nmol/kg (300 μM)) was 14.5 ± 1.3 (3), the “AUC (% CI × h)” value (Sheep MCC; sheep, 240 nmol/kg (3 mM)) was 14.1 ± 2.2 (6) % CI × h and the “Initial Slope (4.0-4.5 h)” value (Sheep MCC; sheep, 240 nmol/kg (3 mM)) was 32.2 ± 7.3 (6). The “MCC Highest Submaximal Dose” value (Sheep MCC; [3]) was 240 nmol/kg (3 mM), the “Therapeutic Ratio (Benefit/Risk)” value (Sheep MCC; sheep, top dose without plasma potassium elevation vs MCC highest submaximal dose) was 0.1 and the “effect on plasma potassium” value ([1]; sheep of the MCC study, at efficacious dose) was “causes a rise in plasma potassium; also recorded: elevations of plasma K”. The “Top Dose in Sheep with no Elevation of Plasma Potassium” value [1, 3] was 24 nmol/kg (300 μM), the “% of Apical Mass as Metabolites (2 h)” value [2, 4] was 83% and 83.0 ± 3.5% and the “% on Basolateral Side as Metabolites (2 h)” value [2, 4] was 94.7 ± 1.0%. The “% of Initial Apical Mass on Basolateral Side as Parent (2 h)” value [2, 5] was “(1% Parent)”, the “% of Initial Drug Mass on Apical Side as Parent (2 h)” value [2, 5] was “(8% Parent)” and the “fate on the apical side after 2 h incubation” value ([2]; HBE cells, apical surface, 37° C.) was “eliminated from the apical side”.
